The test has as its target T1, IRAK3-ePL (Homo sapiens, UniProt Q9Y616).
T1 construct: expressed in transfected cells; host or cells: 293T CRBN OE / GSPT1 G575N KI cells, lentiviral transduction, puromycin selection
The test can be described thus: IRAK3-ePL Overexpressing Degradation Assay. Format: cell-based. The conditions noted are these: IRAK3-ePL Lenti-X 293T CRBN/GSPT1 G575N cells, overnight incubation; for Dmax: HEK-293T, top dose 10 μM, maximum percentage loss of target protein; for DC50: read-out: IRAK3 ePL degradation EC50. The protocol: Stable cell lines were generated by the following protocol. 3×10^5 Lenti-X 293T cells (Clonetech) were plated in 0.8 mL of media in a 12-well plate and incubated overnight at 37° C./5% CO2. Packaging plasmid (0.4 μg, pMD), envelope plasmid (0.4 μg, pSP), and lentiviral transfer IRAK3-ePL plasmid (0.8 μg, IRAK3 sequence NM_007199.3) were mixed in 0.1 mL of Opti-MEM and incubated for 5 min. Simultaneously, 2.4 μL of Lipofectamine 2000 (Invitrogen) was added to 0.1 mL of Opti-MEM (Gibco) and incubated for 5 min. The plasmid DNA and lipofectamine were combined and the mixture was allowed to incubate for 20 min.DNA:Lipofectamine Opti-MEM mixtures were then added to previously plated cells dropwise and the cells were incubated for ˜16 h at 37° C./5% CO2. Following incubation, the media was removed and 1.2 mL of fresh media was added per well. Lenti-X 293T cells were incubated for ˜30 h at 37° C./5% CO2. 0.5×10^6 293T^CRBN OE/GSPT1 G575N KI cells were plated in 0.5 mL of media/well of a 12-well plate and incubated for ˜16 h at 37° C./5% CO2. Following incubation, media was removed from the Lenti-X 293T wells and passed through a […]. Part of the viral supernatant was used to transduce cells and the rest was stored at −80° C. Viruses were then added individually (0.5 mL virus) to each well of the 293T^CRBN OE/GSPT1 G575N KI cells, followed by addition of polybrene (10 mg/mL Millipore) to each well at a final concentration of 5.0 μg/mL. Cells were incubated for ˜24 h at 37° C./5% CO2. After aspirating media off plates, cells were washed with DPBS, trypsinized and plated in a 10 cm dish in 15 mL of media and 1 μg/mL puromycin. Following incubation of cells for ˜72 h at 37° C./5% CO2, media was aspirated off plates, and cells were washed with DPBS and trypsinized. The cells were plated in a 15 cm dish in 40 mL of media with 1.0 μg/mL Puromycin (Gibco) and incubated for ˜72 h at 37° C./5% CO2. Following incubation, media was removed and cells were washed with DPBS and trypsinized. The majority of cells were resuspended in Invitrogen freezing media and stored away (˜6-8×10^6 cells/vial).
IRAK3-ePL cellular dose response curve degradation assays were performed by the following protocol. Compounds to be tested were dispensed into a white 384-well tissue-culture treated plate using an acoustic liquid handler. Dilutions were prepared based on a 25 μL assay volume in duplicate 10 point 3-fold serial dilutions starting with a 10 μM dose. Negative control wells were included, which only contain 0.2% DMSO to calculate 100% signal. Positive control wells containing 30 μM Ataluren (luciferase inhibitor) were included to calculate the background signal level. All wells were backfilled to a final DMSO concentration of 0.2% to ensure DMSO uniformity across wells. IRAK3-ePL expressing cells (IRAK3-ePL Lenti-X 293T^CRBN/GSPT1 G575N) were washed, trypsinized, counted, and resuspended in fresh DMEM (Gibco) to give a cell concentration of 200,000 cells/mL. 25 μL of cells (5,000 cells/well) were dispensed into the wells of the 384-well plate prespotted with compounds in the previous step and incubated overnight at 37° C./5% CO2. Following incubation, the 384-well plate was taken out of the incubator and left at room temperature for 30 min. InCELL hunter reagent was prepared according to manufacturer's instructions (EA reagent, lysis buffer, and substrate reagent in a 1:1:4 ratio, Cat #96-0002, DiscoverX), which was added to the 384-well plate 25 μL per well. Following the incubation of the plate for 1 h at room temperature, the luminescence signal was read using a ViewLux plate reader. Data was processed and analyzed in ActivityBase software. In short, the average luminescence values of the positive control wells were subtracted from the rest of the wells for background correction, and all luminescence values were normalized to the DMSO control wells. The average value of the DMSO control wells was set to equal 100% of the relative IRAK3-ePL protein levels. […]

The Dmax is the greatest extent of degradation seen. Higher therefore signals deep degradation. Consider `Cc1cccc(-c2cnc(Nc3ccc(N4CCN(C(=O)COc5cccc6c5C(=O)N(C5CCC(=O)NC5=O)C6=O)CC4)cc3)c3nccn23)c1` (stereo not drawn) [Compound 1, 2-(2,6-Dioxopiperidin-3-yl)-4-(2-oxo-2-(4-(4-((5-(m-tolyl)imidazo[1,2-a]pyrazin-8-yl)amino)phenyl)piperazin-1-yl)ethoxy)isoindoline-1,3-dione], for which the Dmax stood at 11%. The same measure, in the same setting: next, `Cc1cccc(-c2cnc(Nc3ccc(N4CCN(C(=O)CCCNC(=O)COc5cccc6c5C(=O)N(C5CCC(=O)NC5=O)C6=O)CC4)cc3)c3nccn23)c1` (stereo not drawn) [Compound 2, 2-((2-(2,6-Dioxopiperidin-3-yl)-1,3-dioxoisoindolin-4-yl)oxy)-N-(4-oxo-4-(4-(4-((5-(m-tolyl)imidazo[1,2-a]pyrazin-8-yl)amino)phenyl)piperazin-1-yl)butyl)acetamide]: 10%. `Cc1cccc(-c2cnc(Nc3ccc(N4CCN(C(=O)CCOCCNC(=O)COc5cccc6c5C(=O)N(C5CCC(=O)NC5=O)C6=O)CC4)cc3)c3nccn23)c1` (stereo not drawn) [Compound 3, 2-((2-(2,6-Dioxopiperidin-3-yl)-1,3-dioxoisoindolin-4-yl)oxy)-N-(2-(3-oxo-3-(4-(4-((5-(m-tolyl)imidazo[1,2-a]pyrazin-8-yl)amino)phenyl)piperazin-1-yl)propoxy)ethyl)acetamide] came in with a Dmax of 14%. The molecule `Cc1cccc(-c2cnc(Nc3ccc(N4CCN(C(=O)COc5ccc6c(c5)C(=O)N(C5CCC(=O)NC5=O)C6=O)CC4)cc3)c3nccn23)c1` (stereo not drawn) [Compound 4, 2-(2,6-Dioxopiperidin-3-yl)-5-(2-oxo-2-(4-(4-((5-(m-tolyl)imidazo[1,2-a]pyrazin-8-yl)amino)phenyl)piperazin-1-yl)ethoxy)isoindoline-1,3-dione] gave a Dmax of 22%. The same measure, in the same setting: next, `Cc1cccc(-c2cnc(Nc3ccc(N4CCN(C(=O)CCCNC(=O)COc5ccc6c(c5)C(=O)N(C5CCC(=O)NC5=O)C6=O)CC4)cc3)c3nccn23)c1` (stereo not drawn) [Compound 5, 2-((2-(2,6-Dioxopiperidin-3-yl)-1,3-dioxoisoindolin-5-yl)oxy)-N-(4-oxo-4-(4-(4-((5-(m-tolyl)imidazo[1,2-a]pyrazin-8-yl)amino)phenyl)piperazin-1-yl)butyl)acetamide]: 21%; `Cc1cccc(-c2cnc(Nc3ccc(N4CCN(C(=O)CCOCCNC(=O)COc5ccc6c(c5)C(=O)N(C5CCC(=O)NC5=O)C6=O)CC4)cc3)c3nccn23)c1` (stereo not drawn) [Compound 6, 2-((2-(2,6-Dioxopiperidin-3-yl)-1,3-dioxoisoindolin-5-yl)oxy)-N-(2-(3-oxo-3-(4-(4-((5-(m-tolyl)imidazo[1,2-a]pyrazin-8-yl)amino)phenyl)piperazin-1-yl)propoxy)ethyl)acetamide]: 39%. For the molecule `Cc1cccc(-c2cnc(Nc3ccc(N4CCN(CCNC(=O)COc5ccc6c(c5)C(=O)N(C5CCC(=O)NC5=O)C6=O)CC4)cc3)c3nccn23)c1` (stereo not drawn) [Compound 7, 2-((2-(2,6-Dioxopiperidin-3-yl)-1,3-dioxoisoindolin-5-yl)oxy)-N-(2-(4-(4-((5-(m-tolyl)imidazo[1,2-a]pyrazin-8-yl)amino)phenyl)piperazin-1-yl)ethyl)acetamide], the Dmax is 51% and the DC50 amounted to 1100 nM. The corresponding values for `Cc1cccc(-c2cnc(Nc3cnn(C4CCN(CCNC(=O)COc5ccc6c(c5)C(=O)N(C5CCC(=O)NC5=O)C6=O)CC4)c3)c3nccn23)c1` (stereo not drawn) [Compound 8, 2-((2-(2,6-Dioxopiperidin-3-yl)-1,3-dioxoisoindolin-5-yl)oxy)-N-(2-(4-(4-((5-(m-tolyl)imidazo[1,2-a]pyrazin-8-yl)amino)-1H-pyrazol-1-yl)piperidin-1-yl)ethyl)acetamide] are 78% and 17 nM. The molecule `Cc1cccc(-c2cnc(Nc3cccc(C4CCN(CCNC(=O)COc5ccc6c(c5)C(=O)N(C5CCC(=O)NC5=O)C6=O)CC4)c3)c3nccn23)c1` (stereo not drawn) [Compound 9, 2-((2-(2,6-Dioxopiperidin-3-yl)-1,3-dioxoisoindolin-5-yl)oxy)-N-(2-(4-(3-((5-(m-tolyl)imidazo[1,2-a]pyrazin-8-yl)amino)phenyl)piperidin-1-yl)ethyl)acetamide] returned a Dmax of 18%. For the molecule `Cc1cccc(-c2cnc(Nc3ccc(C4CCN(CCNC(=O)COc5ccc6c(c5)C(=O)N(C5CCC(=O)NC5=O)C6=O)CC4)cc3)c3nccn23)c1` (stereo not drawn) [Compound 10, 2-((2-(2,6-Dioxopiperidin-3-yl)-1,3-dioxoisoindolin-5-yl)oxy)-N-(2-(4-(4-((5-(m-tolyl)imidazo[1,2-a]pyrazin-8-yl)amino)phenyl)piperidin-1-yl)ethyl)acetamide], the Dmax came out at 17%. The same measure, in the same setting: as for `Cc1cccc(-c2cnc(Nc3cccc(N4CCN(CCNC(=O)COc5ccc6c(c5)C(=O)N(C5CCC(=O)NC5=O)C6=O)CC4)c3)c3nccn23)c1` (stereo not drawn) [Compound 11, 2-((2-(2,6-Dioxopiperidin-3-yl)-1,3-dioxoisoindolin-5-yl)oxy)-N-(2-(4-(3-((5-(m-tolyl)imidazo[1,2-a]pyrazin-8-yl)amino)phenyl)piperazin-1-yl)ethyl)acetamide], the figure is 22%. Regarding `Cc1cccc(-c2cnc(Nc3cnn(C4CCN(C5CCC6(CC5)CCN(C(=O)c5ccc7c(c5)CN(C5CCC(=O)NC5=O)C7=O)CC6)CC4)c3)c3nccn23)c1` (stereo not drawn) [Compound 12, 3-(1-Oxo-5-(9-(4-(4-((5-(m-tolyl)imidazo[1,2-a]pyrazin-8-yl)amino)-1H-pyrazol-1-yl)piperidin-1-yl)-3-azaspiro[5.5]undecane-3-carbonyl)isoindolin-2-yl)piperidine-2,6-dione], the Dmax is 76% and the DC50 was determined as 28 nM.

For the origin of these results see patent publication US20260028343A1, “Substituted Imidazopyrazine Compounds as Ligand Directed Degraders of IRAK3” (Celgene Corporation, priority 2022, published 2026).
